The target in experiment [1] is T1, AMPK beta 1 (Homo sapiens, UniProt Q13131+Q9Y478).
T1 construct: in-cell-ELISA for phospho-ACC (Acetyl-CoA carboxylase 1) in HepG2 cells (liver); endogenous in cells; host or cells: HepG2 (assignment to the beta 1 column inferred)
Description: in-cell-ELISA for phospho-ACC: activation of AMPK, beta 1 (HepG2 cells / C2C12 myotubes). It is filed as cell-based. Particulars: 2 h, percentage activation over vehicle control; for activation at 1 µM / activation at 3 µM: read-out: Percentage activation of beta 1 at given concentration. The gist of the method: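 HepG2 cells and differentiated C2C12 myotubes treated with compound at 1, 3 or 10 μM for 2 h in serum-free DMEM. Phospho-ACC detected by in-cell ELISA after methanol fixation (HRP secondary, A450), normalized to DNA (Hoechst); expressed as % activation over vehicle control.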

For experiment [2], the target named is T2, AMPK beta 2 (Mus musculus, UniProt Q6PAM0+Q8BRK8).
T2 construct: fully differentiated myotubes (C2C12 cells) grown in 96 well plate; endogenous in cells; host or cells: C2C12 myotubes (assignment to the beta 2 column inferred)
Description: in-cell-ELISA for phospho-ACC: activation of AMPK, beta 2 (HepG2 cells / C2C12 myotubes). Particulars: 2 h, percentage activation over vehicle control, read-out: Percentage activation of beta 2 at given concentration. The class given is cell-based. On the procedure:
Activation of AMPK by various compounds were measured using in-cell-ELISA for phospho-ACC (Acetyl-CoA carboxylase 1) in HepG2 cells (liver) and fully differentiated myotubes (C2C12 cells) grown in 96 well plate. Cells were treated with 1 μM, 3 μM or 10 μM of the molecule (Example) for 2 h in serum free DMEM media. After methanol fixation, cells were blocked with BSA followed by addition of anti-phospho ACC antibody (Cell Signaling) and HRP conjugated secondary antibody. Absorbance values taken at 450 nm were normalized with total DNA (Hoechest stain). Results were expressed as percentage activation over vehicle control.
Percentage activation at compound (Example) concentration of 1, 3 or 10 μM for compounds according to the invention are shown in the following table. The number of the compound corresponds to the number of the Example (Ex) in the experimental section.

The values that follow come from patent publication US20160130226A1, “SPIRO-SUBSTITUTED OXINDOLE DERIVATIVES HAVING AMPK ACTIVITY” (BOEHRINGER INGELHEIM INTERNATIONAL GMBH, priority 2013, published 2016).

T2 sequence (Q6PAM0 whole entry): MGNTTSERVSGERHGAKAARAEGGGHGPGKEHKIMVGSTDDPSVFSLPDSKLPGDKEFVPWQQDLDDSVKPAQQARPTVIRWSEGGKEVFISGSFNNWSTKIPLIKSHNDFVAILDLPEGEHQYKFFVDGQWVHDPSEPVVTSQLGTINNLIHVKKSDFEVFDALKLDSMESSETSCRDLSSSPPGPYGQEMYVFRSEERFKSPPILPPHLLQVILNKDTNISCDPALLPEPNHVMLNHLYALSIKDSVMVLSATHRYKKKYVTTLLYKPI
T2 sequence (Q8BRK8 whole entry): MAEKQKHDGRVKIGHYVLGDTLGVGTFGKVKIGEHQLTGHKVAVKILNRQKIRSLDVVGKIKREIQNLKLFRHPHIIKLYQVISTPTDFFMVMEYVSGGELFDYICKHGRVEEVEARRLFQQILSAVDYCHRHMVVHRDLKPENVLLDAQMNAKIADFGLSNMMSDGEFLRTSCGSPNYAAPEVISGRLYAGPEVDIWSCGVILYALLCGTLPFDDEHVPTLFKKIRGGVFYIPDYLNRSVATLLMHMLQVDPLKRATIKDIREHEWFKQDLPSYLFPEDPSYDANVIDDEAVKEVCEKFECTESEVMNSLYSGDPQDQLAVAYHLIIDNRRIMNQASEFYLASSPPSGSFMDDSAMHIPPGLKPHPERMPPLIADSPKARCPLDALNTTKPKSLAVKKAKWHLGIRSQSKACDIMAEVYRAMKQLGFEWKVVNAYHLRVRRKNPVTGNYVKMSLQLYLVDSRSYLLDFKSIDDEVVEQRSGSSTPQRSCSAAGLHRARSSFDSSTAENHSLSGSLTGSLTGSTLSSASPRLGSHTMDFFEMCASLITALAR
T2 sequence (O54950 whole entry partner): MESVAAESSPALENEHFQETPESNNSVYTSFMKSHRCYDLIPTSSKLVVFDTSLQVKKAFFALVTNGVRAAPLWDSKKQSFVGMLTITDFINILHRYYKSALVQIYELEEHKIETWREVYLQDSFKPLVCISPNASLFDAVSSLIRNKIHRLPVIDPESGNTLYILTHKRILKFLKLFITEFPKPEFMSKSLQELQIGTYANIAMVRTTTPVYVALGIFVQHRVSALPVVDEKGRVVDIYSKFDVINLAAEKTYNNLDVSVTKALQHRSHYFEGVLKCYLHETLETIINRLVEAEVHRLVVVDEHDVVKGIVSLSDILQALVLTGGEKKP
T1 sequence (Q9Y478 2-270 limits assumed): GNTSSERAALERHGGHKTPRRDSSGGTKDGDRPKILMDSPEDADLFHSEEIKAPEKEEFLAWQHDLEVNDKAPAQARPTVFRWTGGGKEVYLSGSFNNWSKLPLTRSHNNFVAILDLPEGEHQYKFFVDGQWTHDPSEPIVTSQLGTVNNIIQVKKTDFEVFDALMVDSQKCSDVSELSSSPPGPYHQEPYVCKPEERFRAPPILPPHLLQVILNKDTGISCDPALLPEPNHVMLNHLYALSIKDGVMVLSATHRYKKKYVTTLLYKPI
T1 sequence (Q13131 whole entry): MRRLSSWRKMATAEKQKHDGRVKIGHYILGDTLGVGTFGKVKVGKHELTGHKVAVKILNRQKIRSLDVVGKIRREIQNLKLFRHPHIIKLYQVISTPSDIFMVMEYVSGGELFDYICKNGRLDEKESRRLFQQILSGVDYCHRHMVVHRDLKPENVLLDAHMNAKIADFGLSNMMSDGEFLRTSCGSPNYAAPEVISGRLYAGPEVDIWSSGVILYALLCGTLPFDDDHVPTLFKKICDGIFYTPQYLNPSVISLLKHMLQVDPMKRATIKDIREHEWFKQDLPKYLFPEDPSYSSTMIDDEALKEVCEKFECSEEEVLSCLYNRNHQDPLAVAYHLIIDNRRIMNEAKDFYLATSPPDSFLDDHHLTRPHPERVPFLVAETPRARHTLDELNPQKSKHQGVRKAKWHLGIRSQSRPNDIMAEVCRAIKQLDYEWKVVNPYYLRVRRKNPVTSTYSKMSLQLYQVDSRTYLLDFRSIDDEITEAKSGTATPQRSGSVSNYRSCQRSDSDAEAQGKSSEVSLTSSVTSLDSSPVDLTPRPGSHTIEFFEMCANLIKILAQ
T1 sequence (P54619 whole entry partner): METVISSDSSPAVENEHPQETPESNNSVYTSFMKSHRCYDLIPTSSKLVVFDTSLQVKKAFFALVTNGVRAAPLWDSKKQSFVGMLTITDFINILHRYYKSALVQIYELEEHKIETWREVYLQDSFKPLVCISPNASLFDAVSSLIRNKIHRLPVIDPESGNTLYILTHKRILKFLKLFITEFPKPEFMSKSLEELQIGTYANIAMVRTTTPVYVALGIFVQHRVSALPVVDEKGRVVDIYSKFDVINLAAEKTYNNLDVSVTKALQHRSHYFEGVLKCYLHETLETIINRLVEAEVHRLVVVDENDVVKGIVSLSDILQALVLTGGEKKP

Regarding `Cc1ccc(C2CC23C(=O)Nc2cc(F)c(-c4ccc(-c5ccc(-n6cccn6)cc5)cc4)cc23)cc1C(=O)O` (centres unmarked) [Example 142], the “Percentage activation of beta 1 at given concentration” value in experiment [1] (1 μM) came out at 89% at 1 μM. The activation at 1 µM in experiment [2] worked out at 66%.

For `Cc1ccc(C2CC23C(=O)Nc2cc(Cl)c(-c4ccc(-c5ccc(-n6ccnc6C)cc5)cc4)cc23)cc1C(=O)O` (centres unmarked) [Example 150], the activation at 1 µM was determined as 18% in experiment [1] (1 μM) and 81% in experiment [2].

On to `COc1ccc(C2CC23C(=O)Nc2cc(Cl)c(-c4ccc(-c5ccc(-n6ccnn6)cc5)cc4)cc23)cc1C(=O)O` (centres unmarked) [Example 139], for which the activation at 3 µM in experiment [1] was 85%. Also, the activation at 1 µM in experiment [2] was 283%.

In the case of `Cc1ccc(C2CC23C(=O)N(CC2CC2)c2cc(Cl)c(-c4ccc(-c5ccncc5)cc4)cc23)cc1C(=O)O` (centres unmarked) [Example 107], the activation at 1 µM in experiment [1] (1 μM) worked out at 94%. Besides, the activation at 3 µM in experiment [2] was 65%.

With `CC(C)c1ccc(C2CC23C(=O)N(C)c2cc(Cl)c(-c4ccc(-c5ccncc5O)cc4)cc23)cc1C(=O)O` (centres unmarked) [Example 40], the activation at 3 µM was 99% in experiment [1] and 32% in experiment [2].

For the compound `O=C(O)Cc1cccc(C2CC23C(=O)Nc2cc(F)c(-c4ccc(-c5ccc(-n6cncn6)cc5)cc4)cc23)c1` (centres unmarked) [Example 175], the values for the activation at 1 µM in experiment [1] (1 μM) and in experiment [2] were 119% and 60%, respectively.

Take `COc1ccc(C2CC23C(=O)Nc2cc(F)c(-c4ccc(-c5ccc(-n6cncn6)cc5)cc4)cc23)cc1CC(=O)O` (centres unmarked) [Example 178]: the activation at 1 µM amounted to 98% in experiment [1] (1 μM) and 120% in experiment [2].

Consider `COc1ccc(C2CC23C(=O)Nc2cc(F)c(-c4ccc(-c5ccc(-n6cccn6)cc5)cc4)cc23)cc1CC(=O)O` (centres unmarked) [Example 176], for which the activation at 1 µM in experiment [1] (1 μM) amounted to 91%; in experiment [2], 126%.

Turning to `COc1ccc(C2CC23C(=O)Nc2cc(Cl)c(-c4ccc(-c5ccc(-n6cncn6)cc5)cc4)cc23)cc1C(=O)O` (centres unmarked) [Example 128], the activation at 1 µM in experiment [1] (1 μM) came to 66%. In experiment [2], the activation at 3 µM came out at 198%.

On to `CN1C(=O)C2(CC2c2ccc(CC(=O)O)cc2)c2cc(-c3ccc(-c4ccncc4)cc3)c(Cl)cc21` (centres unmarked) [Example 102], for which the activation at 3 µM in experiment [1] came to 33%. Also, in experiment [2] (10 μM), the activation at 10 µM stood at 115%.
